Results on 19 compounds are retold here after publication PMC7722354, “7-Substituted 2-Nitro-5,6-dihydroimidazo[2,1-b][1,3]oxazines: Novel Antitubercular Agents Lead to a New Preclinical Candidate for Visceral Leishmaniasis” (Journal of Medicinal Chemistry, 2017).

SMILES strings stand for the structures. Values after ≈ are worked out from the molar mass of the structure shown.

The test system of one assay is Leishmania donovani. Put plainly: L. don amastigote mouse macrophage-based luciferase assay (CDRI). In kind it is cell-based. The note with it: in mouse macrophages, single test (CDRI).
Assay [1] has as its system M. tb, strain H37Rv. Put plainly: LORA minimum inhibitory concentration assay (hypoxic). In kind it is cell-based. The settings on record: Mycobacterium tuberculosis.
For assay [2], the system named is M. tb, strain H37Rv. The assay can be described thus: MABA minimum inhibitory concentration assay (aerobic). Format: cell-based, Mycobacterium tuberculosis.
In the next assay the test system is Trypanosoma cruzi. The assay can be described thus: T. cruzi growth inhibition on MRC-5 cells (LMPH). Format: cell-based. The note with it: MRC5.
The subject of assay [3] is human lung fibroblasts (MRC-5 cells). The assay can be described thus: cytotoxicity toward MRC-5 cells (LMPH). In kind it is cell-based. The note with it: MRC5.
The test system of the next assay is Leishmania infantum. The assay can be described thus: L. inf growth inhibition in mouse macrophages (LMPH). In kind it is cell-based. The settings on record: Macrophage, mean of at least two determinations.
Where [4] appears, read: Mycobacterium tuberculosis, H37RV, read-out: MIC MABA, aerobic.
[5] abbreviates: Mycobacterium tuberculosis, H37RV, aerobic, read-out: MIC MABA.

In the assay with Leishmania donovani, `CC1(COc2ccc(-c3ccc(OC(F)(F)F)cc3)cc2)CCn2cc([N+](=O)[O-])nc2O1` (centres unmarked) [compound 54] gave an IC50 of 520 nM. Moreover, the MIC with M. tb, strain H37Rv [1] is 1.3 µM (≈ 0.584 µg/mL); with M. tb, strain H37Rv [2] (setting [4]), 0.11 µM (≈ 0.0494 µg/mL).

`CC1(COc2ccc(-c3ccc(F)nc3F)nc2)CCn2cc([N+](=O)[O-])nc2O1` (centres unmarked) [compound 115]: the IC50 is 380 nM in the assay with Trypanosoma cruzi, greater than 64000 nM in assay [3], 110 nM in the assay on Leishmania donovani and 280 nM in the assay on Leishmania infantum. In addition, the minimum inhibitory concentration (MIC) is 18 µM (≈ 7.26 µg/mL) in the assay on M. tb, strain H37Rv [1] and 0.94 µM (≈ 0.379 µg/mL) in the assay with M. tb, strain H37Rv [2] (setting [5]).

Regarding `CC1(COC(=O)N2CCN(c3ccc(F)cc3)CC2)CCn2cc([N+](=O)[O-])nc2O1` (centres unmarked) [compound 161], the IC50 is 3900 nM with Trypanosoma cruzi, greater than 64000 nM in assay [3], 290 nM in the assay with Leishmania donovani and 720 nM in the assay with Leishmania infantum. The MIC stood at 8.4 µM (≈ 3.52 µg/mL) with M. tb, strain H37Rv [1] and 3.4 µM (≈ 1.43 µg/mL) in the assay on M. tb, strain H37Rv [2] (setting [5]).

As to `CC1(COc2ccc(-c3ccc(F)cc3)nc2)CCn2cc([N+](=O)[O-])nc2O1` (centres unmarked) [compound 90], half-maximal inhibition with Leishmania donovani (IC50) was put at 650 nM. Besides, the MIC in the assay with M. tb, strain H37Rv [1] amounted to 3.9 µM (≈ 1.5 µg/mL); in the assay with M. tb, strain H37Rv [2] (setting [4]), 0.35 µM (≈ 0.135 µg/mL).

Turning to `O=[N+]([O-])c1cn2c(n1)OC(COc1ncc(-c3ccc(F)nc3)cn1)CC2` (centres unmarked) [compound 132], the IC50 in the assay on Trypanosoma cruzi was 3300 nM; in assay [3] it was greater than 64000 nM; in the assay with Leishmania donovani it was 530 nM; in the assay with Leishmania infantum, greater than 64000 nM. The MIC in the assay with M. tb, strain H37Rv [1] stood at 21 µM (≈ 7.82 µg/mL); in the assay on M. tb, strain H37Rv [2] (setting [5]), 0.24 µM (≈ 0.0894 µg/mL).

Take `O=[N+]([O-])c1cn2c(n1)OC(COc1ccc(-c3ccc(F)cc3)nn1)CC2` (centres unmarked) [compound 123]: the IC50 is 670 nM with Trypanosoma cruzi, greater than 64000 nM in assay [3], 70 nM with Leishmania donovani and 8400 nM in the assay on Leishmania infantum. Also, the MIC against M. tb, strain H37Rv [1] is 23 µM (≈ 8.54 µg/mL); in the assay with M. tb, strain H37Rv [2] (setting [5]) it was 0.35 µM (≈ 0.13 µg/mL).

The compound `C[C@]1(COCc2ccc(-c3ccc(OC(F)(F)F)cc3)cc2)CCn2cc([N+](=O)[O-])nc2O1` [compound 34, (7R)-7-Methyl-2-nitro-7-({[4′-(trifluoromethoxy)[1,1′-biphenyl]-4-yl]methoxy}methyl)-6,7-dihydro-5H-imidazo[2,1-b][1,3]oxazine] yielded an IC50 in the assay on Leishmania donovani of 240 nM. Further, the MIC was found to be 1.1 µM (≈ 0.51 µg/mL) in the assay with M. tb, strain H37Rv [1] and 0.063 µM (≈ 0.0292 µg/mL) in the assay on M. tb, strain H37Rv [2] (setting [4]).

In the case of `CC1(COc2ccc(-c3ccc(OC(F)(F)F)cc3)cn2)CCn2cc([N+](=O)[O-])nc2O1` (centres unmarked) [compound 65], the IC50 in the assay with Trypanosoma cruzi was 1000 nM; in assay [3] it was greater than 64000 nM; in the assay on Leishmania donovani it was 260 nM; in the assay with Leishmania infantum it was 3800 nM. For the same compound, the MIC in the assay with M. tb, strain H37Rv [1] came to 5.3 µM (≈ 2.39 µg/mL); in the assay with M. tb, strain H37Rv [2] (setting [5]), 0.13 µM (≈ 0.0585 µg/mL).

In the assay with Leishmania donovani, `O=[N+]([O-])c1cn2c(n1)OC(COc1ccc(-c3ccc(OC(F)(F)F)cc3)cc1)CC2` (centres unmarked) [compound 53] showed an IC50 of 60 nM. For the same compound, the MIC with M. tb, strain H37Rv [1] is 0.73 µM (≈ 0.318 µg/mL); in the assay on M. tb, strain H37Rv [2] (setting [4]) it was 0.08 µM (≈ 0.0348 µg/mL).

`CC1(COc2cccc(-c3ccc(F)nc3F)n2)CCn2cc([N+](=O)[O-])nc2O1` (centres unmarked) [compound 120]: the IC50 was 490 nM in the assay on Trypanosoma cruzi, greater than 64000 nM in assay [3] and 590 nM with Leishmania infantum. Besides, the MIC against M. tb, strain H37Rv [1] turned out to be 7.9 µM (≈ 3.19 µg/mL); in the assay with M. tb, strain H37Rv [2] (setting [5]) it was 9.3 µM (≈ 3.75 µg/mL).

With `CC1(COc2ccc(-c3ccc(F)cc3)cn2)CCn2cc([N+](=O)[O-])nc2O1` (centres unmarked) [compound 61], the IC50 with Leishmania donovani was 90 nM. The minimum inhibitory concentration (MIC) is 1 µM (≈ 0.384 µg/mL) in the assay on M. tb, strain H37Rv [1] and 0.17 µM (≈ 0.0653 µg/mL) in the assay on M. tb, strain H37Rv [2] (setting [4]).

As to `CC1(COc2cccc(-c3ccc(F)cc3)n2)CCn2cc([N+](=O)[O-])nc2O1` (centres unmarked) [compound 101], the IC50 in the assay on Trypanosoma cruzi is 350 nM; in assay [3], greater than 64000 nM; in the assay with Leishmania infantum it was 180 nM. Moreover, the MIC against M. tb, strain H37Rv [1] worked out at 5 µM (≈ 1.92 µg/mL); in the assay on M. tb, strain H37Rv [2] (setting [5]) it was 0.94 µM (≈ 0.361 µg/mL).

`O=[N+]([O-])c1cn2c(n1)OC(COc1ccc(-c3ccc(C(F)(F)F)nc3)nc1)CC2` (centres unmarked) [compound 116] showed an IC50 with Leishmania donovani of 70 nM. Besides, the MIC in the assay on M. tb, strain H37Rv [1] is 58 µM (≈ 24.4 µg/mL); in the assay with M. tb, strain H37Rv [2] (setting [4]) it was 0.12 µM (≈ 0.0506 µg/mL).

As to `CC1(COc2ccc(-c3ccc(F)cc3F)cn2)CCn2cc([N+](=O)[O-])nc2O1` (centres unmarked) [compound 63], the IC50 with Trypanosoma cruzi was 210 nM; in assay [3], greater than 64000 nM; with Leishmania infantum, 110 nM. The MIC with M. tb, strain H37Rv [1] is 2.5 µM (≈ 1.01 µg/mL); in the assay with M. tb, strain H37Rv [2] (setting [5]) it was 0.089 µM (≈ 0.0358 µg/mL).

In the case of `O=[N+]([O-])c1cn2c(n1)O[C@@H](COc1ccc(-c3ccc(OC(F)(F)F)cc3)nc1)CC2` [compound 94], the MIC is 1.5 µM (≈ 0.655 µg/mL) against M. tb, strain H37Rv [1]; 0.02 to 0.04 µM (≈ 0.00873 to 0.0175 µg/mL) in the assay with M. tb, strain H37Rv [2] (setting [4]); 0.024 µM (≈ 0.0105 µg/mL) in the assay on M. tb, strain H37Rv [2] (aerobic, read-out: MIC MABA).

Take `O=[N+]([O-])c1cn2c(n1)OC(COc1ccc(-c3ccc(F)cc3)cn1)CC2` (centres unmarked) [compound 59, 7-({[5-(4-Fluorophenyl)pyridin-2-yl]oxy}methyl)-2-nitro-6,7-dihydro-5H-imidazo[2,1-b][1,3]oxazine]: the IC50 in the assay on Leishmania donovani came out at 10 nM. In addition, the MIC is less than 0.25 µM in the assay with M. tb, strain H37Rv [1]; 0.02 to 0.04 µM (≈ 0.00741 to 0.0148 µg/mL) in the assay on M. tb, strain H37Rv [2] (setting [4]); 0.025 µM (≈ 0.00926 µg/mL) in the assay with M. tb, strain H37Rv [2] (aerobic, read-out: MIC MABA).

Take `O=[N+]([O-])c1cn2c(n1)OC(COC1CCN(c3ccc(F)cc3)CC1)CC2` (centres unmarked) [compound 170]: the MIC was 20 µM (≈ 7.53 µg/mL) in the assay with M. tb, strain H37Rv [1] and 0.78 µM (≈ 0.294 µg/mL) in the assay on M. tb, strain H37Rv [2] (setting [4]).

Consider `CC1(COc2cccc(-c3ccc(F)cc3F)n2)CCn2cc([N+](=O)[O-])nc2O1` (centres unmarked) [compound 103], for which the IC50 was 220 nM in the assay on Trypanosoma cruzi, greater than 64000 nM in assay [3] and 240 nM in the assay on Leishmania infantum. Further, the MIC in the assay with M. tb, strain H37Rv [1] was 4.8 µM (≈ 1.93 µg/mL); in the assay on M. tb, strain H37Rv [2] (setting [5]), 0.69 µM (≈ 0.278 µg/mL).

In the assay with Leishmania donovani, `O=[N+]([O-])c1cn2c(n1)OC(COc1ccc(OCc3ccccc3)cc1)CC2` (centres unmarked) [compound 45] returned an IC50 of 20 nM. For the same compound, the MIC was greater than 128 µM against M. tb, strain H37Rv [1] and greater than 128 µM in the assay on M. tb, strain H37Rv [2] (setting [4]).
